Reference: patent publication US10206908B2, “3-(1H-pyrrolo[3,2-C]pyridin-2-YL)-1H-pyrazolo[3,4-C]pyridines and therapeutic uses thereof” (Samumed, LLC, priority 2015, dated 2019)

Columns and labels:
Assay type in all cases: cell-based
IL-6 (THP-1 cells) = experiment: IL-6 inhibition in LPS-stimulated THP-1 monocytes (HTRF); conditions: Homo sapiens; for EC50: IL-6, THP-1 cells, LPS 500 ng/mL, 22 hours; for inhibition at 10 µM: THP-1, read-out: percent inhibition at 10 μM
Procedure: Compound Screening: THP-1 cells were cultured in basal media with 1% FBS for 24 hours before the start of the assay. […] THP-1 cells were plated at 5000 cells/well in the 384-well plates and incubated at 37° C. for 2 h. 500 ng/mL of LPS was added after 2 hours and cells were incubated for another 22 hours at 37° C. Plates were spun in a centrifuge for 1 minute at […] and a mixture of anti-IL6 XL665, and anti-IL6 Cryptate diluted in reconstitution buffer (Cisbio Inc.) was added to each well. Following incubation for 3 hrs at room temperature, Homogeneous Time-Resolved Fluorescence (HTRF) was measured using the Envision (Perkin Elmer) at 665 nm and […]. The ratio of fluorescence at 665 nm to 620 nm was used as a readout for IL6 quantification. All samples were processed in duplicate. Readings were normalized to DMSO treated cells and normalized activities were utilized for EC50 calculations using the dose-response log (inhibitor) vs. response-variable slope (four parameters) nonlinear regression feature available in GraphPad Prism 5.0 (or Dotmatics).

[1] = system: primary human fibroblasts derived from IPF patients (LL29 cells) treated with TGF-β1; experiment: Inhibition of the fibrotic process: αSMA staining in TGF-β1 treated LL29 fibroblasts; conditions: Fibroblast; for EC50: 96 h, % αSMA positive LL29 cells, TGF-β1 20 ng/mL, 4 days; for inhibition at 10 µM: read-out: percent inhibition at 10 μM
Procedure: Representative compounds were screened using primary human fibroblasts (derived from IPF patients) treated with TGF-β1 to determine their ability to inhibit the fibrotic process.
LL29 cells are plated at 1,500 cells/well in 80 μL/well F12 medium supplemented with 1% Fetal Bovine Serum. […] Wells treated with TGF-β1 and containing DMSO were used as controls. […] Following incubation for 4 days, SYTOX green nucleic acid stain (Life Technologies [Thermo Fisher Scientific]) was added to the wells at a final concentration of 1 μM and incubated at room temperature for 30 min.

SW480 colon cancer cells = experiment: Cell viability assay (CellTiter-Blue) in SW480 colon cancer cells; conditions: Homo sapiens; for EC50: 96 h, SW480 cell viability, four days; for inhibition at 10 µM: SW480, read-out: percent inhibition at 10 μM
Procedure: Representative compounds were screened using the following assay procedure to assess the effect on cell viability as described below.
Approximately 2×10^3 SW480 colon cancer cells were seeded into each well and allowed to incubate in the presence or absence of compound for four days at 37° C./5% CO2. Eight replicates of DMSO-treated cells served as controls and cells treated with compound were performed in duplicate.
After incubation, 20 μL of CellTiter-Blue (Promega) was added to each well allowed to incubate for approximately 3 hours. This reagent was a buffered solution which contains resazurin, metabolically active cells were able to reduce rezarurin (blue) into resorufin (pink) which was highly fluorescent. This measured fluorescence was used as a readout for cell viability.

[2] = system: Wnt activity (Sp5-Luc reporter, SW480 colon carcinoma cells); experiment: Screening assay for Wnt activity: Sp5-Luc reporter gene assay in SW480 colon carcinoma cells; conditions: Homo sapiens; for EC50: Sp5-Luc reporter, SW480 cells, overnight incubation; for inhibition at 10 µM: SW480, read-out: percent inhibition at 10 μM
From the text: The screening assay for Wnt activity is described as follows. Reporter cell lines can be generated by stably transducing cancer cell lines (e.g., colon cancer) or primary cells (e.g., IEC-6 intestinal cells) with a lentiviral construct that includes a Wnt-responsive promoter driving expression of the firefly luciferase gene.
SW480 colon carcinoma cells were transduced with a lentiviral vector expressing luciferase with a human Sp5 promoter consisting of a sequence of eight TCF/LEF binding sites. SW480 cells stably expressing the Sp5-Luc reporter gene and a hygromycin resistance gene were selected by treatment with 150 μg/mL of hygromycin for 7 days. These stably transduced SW480 cells were expanded in cell culture and used for all further screening activities. […] For Sp5-Luc reporter gene assays, the cells were plated at 4,000 cells/well in 384-well plates with medium containing 1% fetal bovine serum and incubated overnight at 37° C. and 5% CO2. Following incubation, 20 μl of BrightGlo luminescence reagent (Promega) was added to each well of the 384-well assay plates. The plates were placed on an orbital shaker for 2 min and then luminescence was quantified using the Envision (Perkin Elmer) plate reader. Readings were normalized to DMSO only treated cells, and normalized activities were utilized for EC50 calculations using the dose-response log (inhibitor) vs. response-variable slope (four parameters) nonlinear regression feature available in GraphPad Prism 5.0 (or Dotmatics).

SMILES | EC50 (IL-6 (THP-1 cells)) [nM] | EC50 [1] [nM] | EC50 (SW480 colon cancer cells) [nM] | inhibition at 10 µM (SW480 colon cancer cells) [%] | EC50 [2] [nM] | inhibition at 10 µM (IL-6 (THP-1 cells)) [%] | inhibition at 10 µM [1] [%] | inhibition at 10 µM [2] [%]
Cn1cc(-c2cc3c(-c4cc5c(-c6cccnc6)nccc5[nH]4)n[nH]c3cn2)cn1 [Compound 556, 5-(1-Methyl-1H-pyrazol-4-yl)-3-(4-(pyridin-3-yl)-1H-pyrrolo[3,2-c]pyridin-2-yl)-1H-pyrazolo[3,4-c]pyridine] | 503 | 69 | > 10000 | 0 | 78 |  |  | 
c1cncc(-c2cc3c(-c4cc5c(N6CCCCC6)nccc5[nH]4)n[nH]c3cn2)c1 [Compound 172, 3-(4-(Piperidin-1-yl)-1H-pyrrolo[3,2-c]pyridin-2-yl)-5-(pyridin-3-yl)-1H-pyrazolo[3,4-c]pyridine] | > 10000 | > 10000 | > 10000 | 10.8 | 632 | 0 | 0 | 
CCCC(=O)Nc1cncc(-c2cc3c(-c4cc5c(-c6ccoc6)nccc5[nH]4)n[nH]c3cn2)c1 [Compound 325, N-(5-(3-(4-(Furan-3-yl)-1H-pyrrolo[3,2-c]pyridin-2-yl)-1H-pyrazolo[3,4-c]pyridin-5-yl)pyridin-3-yl)butyramide] | 2380 | 1740 | > 10000 | 31.2 | 1100 |  |  | 
CC(C)Nc1cncc(-c2cc3c(-c4cc5c(-c6ccc(F)cc6)nccc5[nH]4)n[nH]c3cn2)c1 [Compound 40, 5-(3-(4-(4-Fluorophenyl)-1H-pyrrolo[3,2-c]pyridin-2-yl)-1H-pyrazolo[3,4-c]pyridin-5-yl)-N-isopropylpyridin-3-amine] | 380 | 56 | 773 |  | 343 |  |  | 
CS(=O)(=O)NCc1cc(F)cc(-c2nccc3[nH]c(-c4n[nH]c5cnc(-c6ccccn6)cc45)cc23)c1 [Compound 504, N-(3-Fluoro-5-(2-(5-(pyridin-2-yl)-1H-pyrazolo[3,4-c]pyridin-3-yl)-1H-pyrrolo[3,2-c]pyridin-4-yl)benzyl)methanesulfonamide] | 2150 | 3390 | 1560 |  | 1670 |  |  | 
c1cc2[nH]c(-c3n[nH]c4cnc(-c5cncc(OC6CCCCC6)c5)cc34)cc2c(N2CCCCC2)n1 [Compound 607, 5-(5-(Cyclohexyloxy)pyridin-3-yl)-3-(4-(piperidin-1-yl)-1H-pyrrolo[3,2-c]pyridin-2-yl)-1H-pyrazolo[3,4-c]pyridine] | 3810 | 1140 | 1100 |  | 1440 |  |  | 
CS(=O)(=O)NCc1cc(F)cc(-c2nccc3[nH]c(-c4n[nH]c5cnc(-c6cncc(CN7CCCC7)c6)cc45)cc23)c1 [Compound 490, N-(3-Fluoro-5-(2-(5-(5-(pyrrolidin-1-ylmethyl)pyridin-3-yl)-1H-pyrazolo[3,4-c]pyridin-3-yl)-1H-pyrrolo[3,2-c]pyridin-4-yl)benzyl)methanesulfonamide] | 3860 | > 10000 | > 10000 | 5.5 | > 10000 |  | 0 | 28.7
CN1CCN(c2nccc3[nH]c(-c4n[nH]c5cnc(-c6cncnc6)cc45)cc23)CC1 [Compound 251, 3-(4-(4-Methylpiperazin-1-yl)-1H-pyrrolo[3,2-c]pyridin-2-yl)-5-(pyrimidin-5-yl)-1H-pyrazolo[3,4-c]pyridine] | > 10000 | > 10000 | > 10000 | 0 | > 10000 | 12.1 | 17.6 | 41.7
CC(C)(C)CC(=O)Nc1cncc(-c2cc3c(-c4cc5c(-c6cc(F)cc(CNS(C)(=O)=O)c6)nccc5[nH]4)n[nH]c3cn2)c1 [Compound 492, N-(5-(3-(4-(3-Fluoro-5-(methylsulfonamidomethyl)phenyl)-1H-pyrrolo[3,2-c]pyridin-2-yl)-1H-pyrazolo[3,4-c]pyridin-5-yl)pyridin-3-yl)-3,3-dimethylbutanamide] | > 10000 | > 10000 | > 10000 | 8.6 | > 10000 | 4.6 | 1.8 | 17.3
CCCCC(=O)Nc1cncc(-c2cc3c(-c4cc5c(-c6cccc(F)c6)nccc5[nH]4)n[nH]c3cn2)c1 [Compound 19, N-(5-(3-(4-(3-Fluorophenyl)-1H-pyrrolo[3,2-c]pyridin-2-yl)-1H-pyrazolo[3,4-c]pyridin-5-yl)pyridin-3-yl)pentanamide] | 1090 | 960 | 1330 |  | 1140 |  |  | 
c1cncc(-c2cc3c(-c4cc5c(-c6ccoc6)nccc5[nH]4)n[nH]c3cn2)c1 [Compound 312, 3-(4-(Furan-3-yl)-1H-pyrrolo[3,2-c]pyridin-2-yl)-5-(pyridin-3-yl)-1H-pyrazolo[3,4-c]pyridine] | 1010 | 294 | 844 |  | 1030 |  |  | 
Fc1cccc(-c2nccc3[nH]c(-c4n[nH]c5cnc(C6CCNCC6)cc45)cc23)c1 [Compound 505, 3-(4-(3-Fluorophenyl)-1H-pyrrolo[3,2-c]pyridin-2-yl)-5-(piperidin-4-yl)-1H-pyrazolo[3,4-c]pyridine] | > 10000 | > 10000 | > 10000 | 5.2 | > 10000 | 16.4 | 0 | 28.3
c1ccc(-c2cc3c(-c4cc5c(-c6cccs6)nccc5[nH]4)n[nH]c3cn2)nc1 [Compound 364, 5-(Pyridin-2-yl)-3-(4-(thiophen-2-yl)-1H-pyrrolo[3,2-c]pyridin-2-yl)-1H-pyrazolo[3,4-c]pyridine] | 3300 | 3120 | 4140 |  | 4040 |  |  | 
CC(C)CC(=O)Nc1cncc(-c2cc3c(-c4cc5c(-c6cccnc6)nccc5[nH]4)n[nH]c3cn2)c1 [Compound 86, 3-Methyl-N-(5-(3-(4-(pyridin-3-yl)-1H-pyrrolo[3,2-c]pyridin-2-yl)-1H-pyrazolo[3,4-c]pyridin-5-yl)pyridin-3-yl)butanamide] | > 10000 | 1920 | > 10000 | 3.6 | > 10000 | 0 |  | 29.9
CC(C)(C)C(=O)Nc1cncc(-c2cc3c(-c4cc5c(-c6cccc(F)c6)nccc5[nH]4)n[nH]c3cn2)c1 [Compound 8, N-(5-(3-(4-(3-Fluorophenyl)-1H-pyrrolo[3,2-c]pyridin-2-yl)-1H-pyrazolo[3,4-c]pyridin-5-yl)pyridin-3-yl)pivalamide] | 940 | 627 | 1720 |  | 1180 |  |  | 
O=C(Cc1ccccc1)Nc1cncc(-c2cc3c(-c4cc5c(N6CCCCC6)nccc5[nH]4)n[nH]c3cn2)c1 [Compound 178, 2-Phenyl-N-(5-(3-(4-(piperidin-1-yl)-1H-pyrrolo[3,2-c]pyridin-2-yl)-1H-pyrazolo[3,4-c]pyridin-5-yl)pyridin-3-yl)acetamide] | 9320 | > 10000 | 6500 |  | 4230 |  | 0 | 
